Test results from BindingDB's records for doi:10.1111/cbdd.12105 (Umdnj-New Jersey Medical School, 2013).

Target: Genome polyprotein (Hepatitis C virus genotype 1b (isolate BK), UniProt P26663)
Test: NS5B Inhibition Assay
Conditions: pH 7; 30 °C
From the text: Inhibition assay using HCV NS5B.

Genome polyprotein, sequence (P26663 2420-3010 limits assumed): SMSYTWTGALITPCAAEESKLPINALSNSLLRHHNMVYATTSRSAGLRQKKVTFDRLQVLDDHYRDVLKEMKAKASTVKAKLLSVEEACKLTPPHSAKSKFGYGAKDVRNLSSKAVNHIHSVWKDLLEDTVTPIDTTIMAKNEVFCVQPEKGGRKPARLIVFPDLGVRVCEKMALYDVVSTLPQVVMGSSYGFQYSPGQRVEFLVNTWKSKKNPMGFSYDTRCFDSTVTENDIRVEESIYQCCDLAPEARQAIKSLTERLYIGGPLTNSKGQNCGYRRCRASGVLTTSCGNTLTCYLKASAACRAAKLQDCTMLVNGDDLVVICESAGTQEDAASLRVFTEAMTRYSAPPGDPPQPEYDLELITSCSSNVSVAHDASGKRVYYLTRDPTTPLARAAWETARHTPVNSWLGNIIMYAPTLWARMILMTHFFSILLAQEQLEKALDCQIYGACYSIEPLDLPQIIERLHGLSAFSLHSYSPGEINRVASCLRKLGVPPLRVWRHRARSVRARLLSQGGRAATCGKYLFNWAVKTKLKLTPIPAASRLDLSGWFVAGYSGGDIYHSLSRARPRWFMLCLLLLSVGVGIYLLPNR

Row | SMILES | IC50 [µM]
1 | COc1cc2c(cc1O)oc(=O)c1c3cc(O)c(O)cc3oc21 [LQB-34] | 18
2 | Cc1cc(=O)oc2cc(O)ccc12 [4-Methyl-7-hydroxycoumarin] | 33.8
3 | COc1cc(OC)c2c(C)cc(=O)oc2c1 [Coumarin derivative, 2b] | 54.1
4 | O=c1cc(-c2ccccc2)c2ccc(O)cc2o1 [7-Hydroxy-4-phenyl-chromen-2-one] | 41.6
5 | C=CCOc1cc(OCC=C)c2ccc(=O)oc2c1 [Neoflavonoid derivative, 6a] | 26.2
6 | COc1cc(OC)c2c(-c3ccccc3)cc(=O)oc2c1 [5,7-dimethoxy-4-phenyl-chromen-2-one] | 63
7 | C=CCc1c(O)c(CC=C)c2oc(=O)cc(-c3ccccc3)c2c1O [Neoflavonoid derivative, 8c] | 45.8
8 | C=CCc1c(O)c(CC=C)c2oc(=O)ccc2c1O [Neoflavonoid derivative, 8a] | 17.9
9 | O=c1ccc2c(O)cc(O)cc2o1 [Coumarin derivative, 1a] | 39.7
10 | C=CCOc1cc(OCC=C)c2c(-c3ccccc3)cc(=O)oc2c1 [Neoflavonoid derivative, 6c] | 30.3

Now from value to molecule:

Row | IC50 [µM] | SMILES
11 | 27 | O=c1cc(-c2ccccc2)c2c(O)cc(O)cc2o1
12 | 47.2 | Cc1cc(=O)oc2cc(O)cc(O)c12 [Coumarin derivative, 1b]
13 | 36.6 | O=c1ccc2ccc(O)cc2o1 [umbelliferone]
14 | 58 | COc1cc(OC)c2ccc(=O)oc2c1 [Coumarin derivative, 2a]
15 | 38.4 | C=CCOc1cc(OCC=C)c2c(C)cc(=O)oc2c1 [Neoflavonoid derivative, 6b]
